According to patent US4036962A, “6,7-Methylenedioxy-1-(2,2,2-trifluoroethyl)-4(1H)-quinolone-3-carboxylic acid and its salts and esters” (E. I. Du Pont de Nemours and Co., priority 1975, dated 1977):
Read-outs that look alike come from different tables or passages of the source.

What was measured:
Escherichia coli = experiment: In vivo antibacterial activity in mice infected with Escherichia coli (intraperitoneal), compound given orally at infection and 4 hours later; mortality through third day; conditions: for ED50: Escherichia coli, po, 72 h
Description: Use of the ester of this invention as antibacterial agents is exemplified by data for 6,7-methylene-1-(2,2,2-trifluoroethyl)-4(1H)-quinolone-3-carboxylic acid, trimethylacetoxymethyl ester. In vivo determinations of antibacterial activity are carried out in mice.
The test bacterium is grown into bacteriological medium from frozen stock cultures. The culture is centrifuged, resuspended, centrifuged again, resuspended in fresh bacteriological medium, and diluted to the proper infective concentration. Mice are infected by intraperitoneal or intravenous injection of 0.2 ml. of the diluted bacterial culture.
Test compounds are dissolved or suspended in water containing 0.01% Tween 80 by either sonication or bead-milling to break up the materials in order to dissolve them or provide a fine suspension for the insoluble compounds. Concentrations are prepared so that when 0.2 ml. of the solution or suspension is administered to mice orally by intubation, the correct amount of compound in mg/kg of mouse is provided.
The mice are dosed with test compound orally by intubation at appropriate intervals following infection and mortality is recorded through the third day. The effective dose 50 (ED50) and lethal dose for 50% kill (LD50) are calculated by the Reed-Muench method.
In Table I are the results of a test in mice infected with Escherichia coli by the intraperitoneal route. Compound was administered orally by intubation immediately following infection and again 4 hours after infection.
^1 Animals dosed orally at the time of infection and again four hours
^2 Determined by agar plate counts and stock culture titration, the
dose is the LD50 multiplied by the number preceding it.

[1] = Biological activity of stable versus metastable crystalline form (test not specified); type: in vivo; conditions: probably due to poor absorption
[2] = 18 LD50 E. coli infection, 10 mg/kg PO, at infection and again 4 hours later
[3] = 18 LD50 E. coli infection, 30 mg/kg PO, at infection and again 4 hours later
[4] = 18 LD50 E. coli infection, 100 mg/kg PO, at infection and again 4 hours later
[5] = 135 LD50 E. coli infection, 10 mg/kg PO, at infection and again 4 hours later
[6] = 135 LD50 E. coli infection, 30 mg/kg PO, at infection and again 4 hours later
[7] = 135 LD50 E. coli infection, 100 mg/kg PO, at infection and again 4 hours later
[8] = 4 LD50 E. coli infected mice, oral, read-out: ED50
[9] = 2 LD50 E. coli infected mice, oral, read-out: ED50

Question: Which “% Survivors” value (Escherichia coli; [2]) does the source give for `CC(C)(C)C(=O)OCOC(=O)c1cn(CC(F)(F)F)c2cc3c(cc2c1=O)OCO3` [Example 6, 6,7-Methylenedioxy-1-(2,2,2-trifluoroethyl)-4(1H)-quinolone-3-carboxylic acid, trimethylacetoxymethyl ester] here?
Answer: Its value is 33%.

Question: What about the “% Survivors” value (Escherichia coli; [3]) of the same molecule?
Answer: Its value is 50%.

Question: And the “% Survivors” value (Escherichia coli; [4])?
Answer: The value was 75%.

Question: What about the “% Survivors” value (Escherichia coli; [5]) of the same molecule?
Answer: Its value is 17%.

Question: What about the “% Survivors” value (Escherichia coli; [6]) of the same molecule?
Answer: The value was 8%.

Question: And the “% Survivors” value (Escherichia coli; [7])?
Answer: Its value is 50%.

Question: And the ED50 (Escherichia coli; 18 LD50 E. coli infection, PO, at infection and again 4 hours later, Reed-Muench, read-out: ED50)?
Answer: Its ED50 is 24 mg/kg.

Question: And the ED50 (Escherichia coli; 135 LD50 E. coli infection, PO, at infection and again 4 hours later, Reed-Muench, read-out: ED50)?
Answer: The ED50 was 77 mg/kg.

Question: And the “antibacterial activity compared with oxolinic acid” value (Escherichia coli; systemic Escherichia coli infection of mice, two infecting levels of bacteria)?
Answer: The value was “significantly greater antibacterial activity than does oxolinic acid”.

Question: For `O=C(OCOC(=O)c1cn(CC(F)(F)F)c2cc3c(cc2c1=O)OCO3)c1ccccc1` [Example 6F, 6,7-methylenedioxy-1-(2,2,2-trifluoroethyl)-4(1H)-quinolone-3-carboxylic acid, benzoyloxymethyl ester], which ED50 (Escherichia coli; [8]) is on record?
Answer: Its ED50 is 34 mg/kg.

Question: With `CCCCCC(=O)OCOC(=O)c1cn(CC(F)(F)F)c2cc3c(cc2c1=O)OCO3` [Example 6C, 6,7-methylenedioxy-1-(2,2,2-trifluoroethyl)-4(1H)-quinolone-3-carboxylic acid, n-hexanoyloxymethyl ester] as the molecule, how does the ED50 (Escherichia coli; [8]) read?
Answer: Its ED50 is 25 mg/kg.

Question: For `CCC(C)(C)C(=O)OCOC(=O)c1cn(CC(F)(F)F)c2cc3c(cc2c1=O)OCO3` [Example 6B, 6,7-methylenedioxy-1-(2,2,2-trifluoroethyl)-4(1H)-quinolone-3-carboxylic acid, 2,2-dimethyl-n-butyryloxymethyl ester], which ED50 (Escherichia coli; [8]) is on record?
Answer: Its ED50 is 40 mg/kg.

Question: For `CC(C)(C)C(=O)OCOC(=O)c1cn(CC(F)(F)F)c2cc3c(cc2c1=O)OCO3` [stable form, 6,7-Methylenedioxy-1-(2,2,2-trifluoroethyl)-4(1H)-quinolone-3-carboxylic acid, trimethylacetoxymethyl ester], which “biological activity of stable form compared with meta-stable form” value [1] is on record?
Answer: The value was “less active than the meta-stable”.

Question: With `CC(C)C(=O)OCOC(=O)c1cn(CC(F)(F)F)c2cc3c(cc2c1=O)OCO3` [Example 6A, 6,7-methylenedixoy-1-(2,2,2-trifluoroethyl)-4(1H)-quinolone-3-carboxylic acid, iso-butyryloxymethyl ester] as the molecule, how does the ED50 (Escherichia coli; [8]) read?
Answer: The ED50 was 73 mg/kg.

Question: Which ED50 (Escherichia coli; [9]) does the source give for `O=C(OCOC(=O)C1CCCCC1)c1cn(CC(F)(F)F)c2cc3c(cc2c1=O)OCO3` [Example 6E, 6,7-methylenedioxy-1-(2,2,2-trifluoroethyl)-4(1H)-quinolone-3-carboxylic acid, cyclohexanecarbonyloxymethyl ester] here?
Answer: Its ED50 is 29 mg/kg.

Question: Which ED50 (Escherichia coli; [9]) does the source give for `CCCCCCCCCC(=O)OCOC(=O)c1cn(CC(F)(F)F)c2cc3c(cc2c1=O)OCO3` [Example 6D, 6,7-methylenedioxy-1-(2,2,2-trifluoroethyl)-4(1H)-quinolone-3-carboxylic acid, n-decanoyloxymethyl ester] here?
Answer: Its ED50 is 19 mg/kg.

Question: What does the source list for `CCn1cc(C(=O)O)c(=O)c2cc3c(cc21)OCO3` [Oxolinic Acid, reference compound]?
Answer: % Survivors (Escherichia coli; [2]): 8%; % Survivors (Escherichia coli; [3]): 33%; % Survivors (Escherichia coli; [4]): 83%; % Survivors (Escherichia coli; [5]): 17%; % Survivors (Escherichia coli; [6]): 17%; % Survivors (Escherichia coli; [7]): 25%; ED50 (Escherichia coli; 18 LD50 E. coli infection, at infection and again 4 hours later, Reed-Muench): 45 mg/kg; ED50 (Escherichia coli; 135 LD50 E. coli infection, at infection and again 4 hours later, Reed-Muench): > 100 mg/kg
